The subject of test [1] is isovaleric acid (malodorous substance). Nature of the test: Olfactory masking test based on sensory evaluation with 20 specialists. Type of test: in vivo. On the set-up: key: 0 = no masking effect, 5 = complete masking effect. The following applies: isovaleric acid (1%) 2 μL, test substance 4 μl, vaporized and admixed in PP bottle; scale 0 (No masking effect) to 5 (Complete masking effect). The method, then:
An olfactory masking test based on sensory evaluation was performed with 20 specialists. Isovaleric acid (1%) was used as a malodorous substance, and each of the substances listed in Table 2 was employed as a masking material. The malodorous substance (2 μL) and each test substance (4 μl) were separately absorbed by cotton balls (diameter: 1 cm), and placed in each injection syringe (capacity: 50 mL) at room temperature for 12 hours to vaporized the substance therein. Both the vaporized malodorous substance and the vaporized test substance were injected into a PP bottle (capacity: 500 mL) with a cap and admixed in the bottle. In evaluation, each specialist slightly opened the cap of the PP bottle and smelled the odor in the bottle, whereby the masking score was determined. The masking score was evaluated by the following six criteria, based on the intensity of odor in a PP bottle to which only the malodorous substance had been added.
1: Only slight masking effect
3: Satisfactory masking effect
4: Substantially complete masking effect
5: Complete masking effect

Test [2] deals with voltage-dependent cation channel. The test is described as follows: Whole-cell recording of inward current in isolated olfactory receptor cells. Type of test: cell-based, Cynops pyrrhogaster. On the procedure: Olfactory receptor cells were isolated from newts (Cynops pyrrhogaster) through a known method (Kurahashi et al., J. Physiol. (1989), 419: 177-192) and bathed in a normal Ringer's solution. More specifically, each newt which had been hibernated in ice-water was double-pithed, and the skull thereof was cut, to thereby remove the olfactory membrane. The removed olfactory membrane was incubated in 0.1% collagenase solution at 37° C. for five minutes. After washing off collagenase, the membrane tissue was broken by means of a glass pipette, to thereby isolate olfactory cells. The normal Ringer's solution had the following composition: NaCl 110 mM, KCl 3.7 mM, CaCl2 3 mM, MgCl2 1 mM, glucose 15 mM, sodium pyruvate 1 mM, HEPES 2 mM, and Phenol Red 0.001% (w/v), with a pH of 7.4 (adjusted with NaOH).
The membrane current of the isolated olfactory cells was recorded through the whole-cell recording method, while the membrane potential was fixed (Kawai et al., J. Gen. Physiol. (1997), vol. 109: 265-272). The electrode employed was produced from borosilicate glass capillary (diameter: 1.2 mm) by means of a puller for electrode fabrication (PP-830, product of Narishige Scientific Instruments). […] Then, an electrode solution was added in the electrode, and an Ag—AgCl wire was inserted into the electrode. The Ag—AgCl wire was connected to a patch-clamp amplifier (Axopatch 1D, 200B, product of Axon Instrument), whereby fixation of the membrane potential and depolarization stimulation were performed. The employed electrode solution had the following composition: KCl 120 mM, HEPES 2 mM, and Phenol Red 0.001% (w/v), with a pH of 7.4 (adjusted with KOH). The membrane current was recorded by a computer which was connected by the mediation of the patch-clamp amplifier and an A/D converter (Digidata 1320, product of Axon Instrument). Each test substance was sprayed to the cells for stimulation, by means of a pressure-controller. The pressure controller is an apparatus which reduces the pressure of compressed air supplied by means of an air-compressor to a specific value under computer-controlled conditions and which feeds the compressed air for a predetermined period of time to a tail of the glass pipette in which the test substance has been charged (Ito et al., The Japanese Journal of Physiology, 1995, vol. 57, 127-133).
In order to investigate the effect of the test substance on the voltage-dependent cation channel activity, the membrane potential of the isolated olfactory cells was fixed to −100 mV, and depolarized to −20 mV for 20 ms at intervals of 200 ms. The peak amplitude of the inward current elicited immediately after depolarization was measured. Each of the test substances shown in Table 1 (1 μL) was mixed with the normal Ringer's solution (1 mL). Under continuous depolarization stimulation, the mixture was sprayed toward the olfactory cells (720 ms, at 50 kPa) through a glass pipette (tip diameter: 1 μm) that was placed such that the tip of the pipette was located in the vicinity ([…]) of the olfactory cells to add the mixture to the olfactory cells, and the change in inward current was monitored. Stimulation of one olfactory cell by the test substance was performed three times, and the three inward currents obtained from the cell were averaged. Each test substance was tested by three olfactory cells, and the three inward currents obtained from the cells were averaged. During the test, in very rare cases, the olfactory receptor responded to stimulation by the test substance, and inward current attributed to a CNG channel was observed. However, such cases were eliminated for evaluation. One conceivable reason for occurrence of such a case is that the test substance acts as an […] to the olfactory receptor on the olfactory cell employed in the test. CNG channel current is readily distinguishable from voltage-dependent channel current in terms of amplitude, peak shape, and duration. […]

[3] abbreviates: test substance 1 μL in 1 mL normal Ringer's solution, sprayed 720 ms at 50 kPa, depolarized from −100 mV to −20 mV, (1−b/a)×100, average of three cells.
The mark [4] stands for this setting: values calculated in the experiments of Example 1, repeated in Table 3.

With `O=Cc1ccccc1` [Benzaldehyde], the Masking score in test [1] amounted to 4.6. Moreover, the “Percent inward current inhibition” value in test [2] (setting [3]) and in test [2] (setting [4]) was 95.4% in each case.
In test [1], `CC(=O)OC1CCCCC1C(C)(C)C` (centres unmarked) [o-tert-Butylcyclohexyl acetate] showed a Masking score of 1.8. Also, the “Percent inward current inhibition” value in test [2] (setting [3]) and in test [2] (setting [4]) was 23.8% each time.
`C=CC(C)(O)CCC=C(C)C` (centres unmarked) [Linalool] registered a Masking score in test [1] of 4.1. The “Percent inward current inhibition” value in test [2] (setting [3]) and in test [2] (setting [4]) was 106.5% each time.
As for `CCCCCC1C(=O)CCC1CC(=O)OC` (centres unmarked) [Methyl dihydrojasmonate], the “Percent inward current inhibition” value in test [2] (setting [3]) was 107.1%.
`CC(C)=CCCC(C)=CC=O` [Citral] returned a Masking score in test [1] of 3.9. The “Percent inward current inhibition” value in test [2] (setting [3]) and in test [2] (setting [4]) was 110.6% each time.
For the compound `CCCCCCCCC=O` [n-Nonanal], the “Percent inward current inhibition” value in test [2] (setting [3]) is reported as 107.4%.
In turn, `O=C(OCc1ccccc1)c1ccccc1` [Benzyl benzoate] registered a Masking score in test [1] of 1.6. Also, the “Percent inward current inhibition” value in test [2] (setting [3]) and in test [2] (setting [4]) was 10.7% each time.
For the compound `C=CCc1ccc(O)c(OC)c1` [Eugenol], the “Percent inward current inhibition” value in test [2] (setting [3]) is on record as 105.0%.
`CC(C=O)Cc1ccc(C(C)(C)C)cc1` (stereo not drawn) [p-tert-Butyl-α-methylhydrocinnamaldehyde]: the “Percent inward current inhibition” value in test [2] (setting [3]) and in test [2] (setting [4]) was 57.9% each time.
Compound `COc1ccc(C=O)cc1` [Anisaldehyde] returned a Masking score in test [1] of 3.9. Besides, the “Percent inward current inhibition” value in test [2] (setting [3]) and in test [2] (setting [4]) was 89.3% throughout.
Take `C=CC(C)CCCC(C)(C)O` (centres unmarked) [Dihydromyrcenol]: the Masking score in test [1] turned out to be 4.8. The “Percent inward current inhibition” value in test [2] (setting [3]) and in test [2] (setting [4]) was 109.0% throughout.
In test [1], `C/C=C/C(=O)C1=C(C)CCCC1(C)C` [β-Damascone] displayed a Masking score of 2.4. For the same compound, the “Percent inward current inhibition” value in test [2] (setting [3]) and in test [2] (setting [4]) was 56.1% throughout.
As for `CC(C)(O)CCCC1=CCC(C=O)CC1` (centres unmarked) [4-(4-Hydroxy-4-methylpentyl)-3-cyclohexene-1-carboxaldehyde], the Masking score in test [1] came out at 1.7. Further, the “Percent inward current inhibition” value in test [2] (setting [3]) and in test [2] (setting [4]) was 35.7% each time.
As to `CCOC(=O)C(C)CC` (centres unmarked) [Ethyl 2-methylbutyrate], the “Percent inward current inhibition” value in test [2] (setting [3]) stood at 42.0%.
Same read-out and setting: with `CC(=CCC1CC=C(C)C1(C)C)CO` (centres unmarked) [2-Methyl-4-(2,2,3-trimethyl-3-cyclopenten-1-yl)-2-buten-1-ol] the figure was 105.6%.
In test [1], `OCCc1ccccc1` [β-Phenylethyl alcohol] returned a Masking score of 2.9. The “Percent inward current inhibition” value in test [2] (setting [3]) and in test [2] (setting [4]) was 82.6% throughout.
`CC(=O)OCCC(C)C` [Isoamyl acetate] showed a Masking score in test [1] of 4.5. Further, the “Percent inward current inhibition” value in test [2] (setting [3]) and in test [2] (setting [4]) was 92.0% each time.
In test [1], `CC1=CC(C)C(C=O)CC1` (centres unmarked) [2,4-Dimethyl-3-cyclohexene-1-carboxaldehyde] registered a Masking score of 4.5. In addition, the “Percent inward current inhibition” value in test [2] (setting [3]) and in test [2] (setting [4]) was 79.9% each time.
With `CC12CCC(CC1)C(C)(C)O2` [1,8-Cineole], in test [1], the Masking score was 3.6. The “Percent inward current inhibition” value in test [2] (setting [3]) and in test [2] (setting [4]) was 46.5% each time.
Consider `CCOC(=O)C(C)C1CCCCC1` (centres unmarked) [Ethyl 2-cyclohexylpropionate], for which the Masking score in test [1] turned out to be 3.0. Moreover, the “Percent inward current inhibition” value in test [2] (setting [3]) and in test [2] (setting [4]) was 48.7% throughout.
As to `C=CC(C)(CCC=C(C)C)OC(C)=O` (centres unmarked) [Linalyl acetate], the Masking score in test [1] is 3.0. Further, the “Percent inward current inhibition” value in test [2] (setting [3]) and in test [2] (setting [4]) was 43.3% each time.
On to `CCOC(=O)C12CCCC1C1CCC2C1` (centres unmarked) [Ethyltricyclo[5.2.1.0^2,6]decane-2-carboxylate], for which, in test [1], the Masking score was 1.9. For the same compound, the “Percent inward current inhibition” value in test [2] (setting [3]) and in test [2] (setting [4]) was 11.6% each time.
Turning to `CC(=O)OCc1ccccc1` [Benzyl acetate], the “Percent inward current inhibition” value in test [2] (setting [3]) stood at 110.8%.
Regarding `CCC(O)COC1CCCCC1C(C)(C)C` (centres unmarked) [1-(2-tert-Butylcyclohexyloxy)-2-butanol], in test [1], the Masking score is 1.7. Besides, the “Percent inward current inhibition” value in test [2] (setting [3]) and in test [2] (setting [4]) was 27.1% in each case.
In the case of `CC/C=C\CCO` [cis-3-Hexenol], the Masking score in test [1] amounted to 4.5. For the same compound, the “Percent inward current inhibition” value in test [2] (setting [3]) and in test [2] (setting [4]) was 78.7% each time.
In the case of `CC(C)=CCC/C(C)=C/CO` [Geraniol], the Masking score in test [1] came to 3.9. Further, the “Percent inward current inhibition” value in test [2] (setting [3]) and in test [2] (setting [4]) was 90.1% throughout.

Source of the values: patent US9012153B2, “Method for screening olfactory sensibility inhibitor” (Kao Corporation, priority 2008, dated 2015).
